The source of these data is the NIST ThermoML archive (doi:10.1016/j.jct.2011.06.016).

A short description of this data set: refractive index (Na D-line) (dimensionless). To be noted: 101.33 kPa, Liquid, Standard Abbe refractometry.

The structures appear in SMILES notation. ± gives the expanded uncertainty stated by the source.

`CCO` [ethanol]: the refractive index (in general, the speed of light in vacuum divided by its phase velocity in the sample) (298.15 K) is 1.3625 ± 0.0007. For the compound `CCCCCCCCCCCCCCCC(=O)OCC` [ethyl hexadecanoate], for the setting “298.15 K”, the refractive index amounted to 1.437 ± 0.001. Regarding `CCCCCCCCCCCCCCCCCC(=O)OCC` [ethyl octadecanoate], the refractive index (313.15 K) is on record as 1.436 ± 0.001. Take `OCC(O)CO` [glycerol]: under “298.15 K”, the refractive index is reported as 1.471 ± 0.001.

Regarding `O` [water], under “298.15 K”, the refractive index was determined as 1.333 ± 0.001.
